From US6861390B2, “Derivatives of UK-2A” (priority 2001, dated 2005)

Assays:
[1] = tested on: Rhizoctonia solani (RHIZSO); test: microbe, parasite or virus in culture; type: cell-based; conditions: read-out: T10 RHIZSO in vitro Growth Inhibition
[2] = tested on: Erysiphe graminis (ERYSGT); test: Powdery Mildew of Wheat, whole plant 24 Hour Protectant (T1); conditions: Blumeria graminis, in Triticum aestivum, read-out: T1 ERYSGT in vivo 1 Day Protectant, control of fungal infection
Ustilago maydis (USTIMA) = test: microbe, parasite or virus in culture; type: cell-based; conditions: Mycosarcoma maydis, read-out: T12 USTIMA in vitro Growth Inhibition
[3] = tested on: Stagonospora nodorum (Leptosphaeria nodorum, LEPTNO); test: microbe, parasite or virus in culture; type: cell-based; conditions: Parastagonospora nodorum, read-out: T7 LEPTNO in vitro Growth Inhibition
[4] = tested on: Magnaporthe grisea (Pyricularia oryzae, PYRIOR); test: microbe, parasite or virus in culture; type: cell-based; conditions: read-out: T9 PYRIOR in vitro Growth Inhibition
[5] = tested on: Phytophthora infestans (PHYTIN); test: whole plant or invertebrate; conditions: in Solanum lycopersicum, 24 h, read-out: T3 PHYTIN in vivo 1 Day Protectant, control of fungal infection
[6] = tested on: Mycosphaerella graminicola (Septoria tritici, SEPTTR); test: microbe, parasite or virus in culture; type: cell-based; conditions: Zymoseptoria tritici, read-out: T11 SEPTTR in vitro Growth Inhibition
[7] = tested on: Leptosphaeria nodorum (LEPTNO); test: Glume Blotch of Wheat, whole plant 24 Hour Protectant (T2); conditions: Parastagonospora nodorum; wheat (cultivar Yuma), sprayed at 100 ppm, inoculated after 24 hours; read-out: T2 LEPTNO in vivo 1 Day Protectant, control of fungal infection
[8] = tested on: Puccinia recondita (PUCCRT); test: Brown Rust of Wheat, whole plant 24 Hour Protectant (T5); conditions: wheat (cultivar Yuma), sprayed at 100 ppm, inoculated after 24 hours, read-out: T5 PUCCRT in vivo 1 Day Protectant, control of fungal infection
[9] = tested on: Phytophthora infestans (PHYTIN); test: microbe, parasite or virus in culture; type: cell-based; conditions: in Secale cereale, read-out: T8 PHYTIN in vitro Growth Inhibition
[10] = tested on: Septoria tritici (SEPTTR); test: Leaf Blotch of Wheat, whole plant 24 Hour Protectant (T6); conditions: Zymoseptoria tritici; wheat (cultivar Monon), sprayed at 100 ppm, inoculated after 24 hours; read-out: T6 SEPTTR in vivo 1 Day Protectant, control of fungal infection

SMILES	inhibition at 25 ppm [1] [%]	pest or weed control at 100 ppm [2] [%]	inhibition at 25 ppm (Ustilago maydis (USTIMA)) [%]	inhibition at 25 ppm [3] [%]	inhibition at 25 ppm [4] [%]	pest or weed control at 100 ppm [5] [%]	inhibition at 25 ppm [6] [%]	pest or weed control at 100 ppm [7] [%]	pest or weed control at 100 ppm [8] [%]	melting point [°C]	inhibition at 25 ppm [9] [%]	pest or weed control at 100 ppm [10] [%]
COc1ccnc(C(=O)N[C@H]2COC(=O)[C@H](Cc3ccccc3)[C@@H](OC(=O)C(C)C)[C@H](C)OC2=O)c1OC(C)OC(C)=O (stereo partly drawn) [Compound 25]	< 80	< 25	> 80	> 80	< 80	< 25	> 80	75 to 100	75 to 100	58 to 65	< 80	75 to 100
CCCC(=O)OCOc1c(OC)ccnc1C(=O)N[C@H]1COC(=O)[C@H](Cc2ccccc2)[C@@H](OC(=O)C(C)C)[C@H](C)OC1=O [Compound 22]	< 80	75 to 100	< 80	> 80	< 80	< 25	< 80	75 to 100	75 to 100	102 to 105	< 80	75 to 100
COc1ccnc(C(=O)N[C@H]2COC(=O)[C@H](Cc3ccccc3)[C@@H](OC(=O)C(C)C)[C@H](C)OC2=O)c1OCOC(=O)c1ccccc1 [Compound 29]	< 80	25 to 74	< 80	> 80	< 80	< 25	< 80	75 to 100	75 to 100	65 to 70	< 80	75 to 100
COc1ccnc(C(=O)N[C@H]2COC(=O)[C@H](Cc3ccccc3)[C@@H](OCC(C)C)[C@H](C)OC2=O)c1OCOC(C)=O [Compound 49]	< 80	75 to 100	< 80	> 80	> 80	25 to 74	> 80	75 to 100	75 to 100	130 to 131	< 80	75 to 100
COc1ccnc(C(=O)N[C@H]2COC(=O)[C@H](Cc3ccccc3)[C@@H](OC3CCCC3)[C@H](C)OC2=O)c1OCOC(C)=O [Compound 50]	< 80	25 to 74	< 80	> 80	> 80	25 to 74	< 80	75 to 100	75 to 100	130 to 132	< 80	75 to 100
COc1ccnc(C(=O)N[C@H]2COC(=O)[C@H](Cc3ccccc3)[C@@H](OC(=O)C(C)C)[C@H](C)OC2=O)c1OCOC(=O)C1CCCC1 [Compound 33]	< 80	25 to 74	< 80	> 80	> 80	< 25	< 80	75 to 100	75 to 100	128 to 129	< 80	75 to 100
